Test results: the NIST ThermoML archive (doi:10.1021/acs.jced.9b00411)
Numbers after ± are expanded uncertainties.

Conditions: Crystal; DSC

## Nc1ccc(S(N)(=O)=O)cc1 [4-aminobenzenesulfonamide]
  Triple point temperature: 437.78 ± 1.2 K
